Data as given in patent publication US20100158973A1 (HADASIT MEDICAL RESEARCH SERVICES & DEVELOPMENT LlIMITED, priority 2006, published 2010).
“And” between values parts separate entries of the source, which are not always exact repeats. Equal entries are not always repeated. “Also recorded” adds a separate entry of the source.

Experiments:
[1] = system: SD/Hsd male rats, surgically induced infarct; assay: Echocardiography before and 7 days after LAD ligation; settings: for LVEDD (left ventricular end-diastolic diameter) / LVESD (left ventricular end-systolic diameter) / SF (shortening fraction): CBD group
Method: In the following experiment 14 SD/Hsd male rats weighing 275-350 g were used.
Rats were anesthetized with ketamine (10%): xylazine (2%), 0.85:0.15 IM 0.1 ml/kg. Animals were intubated and ventilated with a small animal respirator (Harvard Sc.). The heart was exposed via left sternotomy and the LAD was reversibly occluded for 30 minutes using a snare fashioned from an encircling silk ligature and a section of 5 French feeding tube. Coronary occlusion and reperfusion were verified by visual inspection. Following reperfusion the released ligature was left in situ. The chest was then closed in layers using uninterrupted sutures. Rats were extubated, received 30-50 cc saline subcutaneously to replace lost body fluids, and were treated with Rymadil (5 mg/kg, i.p.) analgesia for 3 days. […] The drug and the vehicle solutions were prepared in separate laboratories, ensuring that the staff (e.g. echocardiography and pathology) was blinded to the treatment arm. After 7 days, animals were re-anesthetized and ventilated as described above. The LAD was permanently re-occluded, and the heart harvested for further analysis.
Rats were anesthetized with Ketamine (10%):Xylasine (2%), 0.85:0.15 IM 0.1 ml/kg and the chest cavity was shaved. Echo was carried out prior to surgery and 1 week after, prior to sacrifice of the animals.
Echo imaging was performed using a GE Vivid3 platform, equipped with a 13 MHz linear epiaortic transducer (General Electric, Haifa, Israel). The probe was positioned in a left parasternal position, and 2D imaging of the heart in the short axis was performed using a high frame rate. This image was used to guide an M-mode cursor down the medial axis of the left ventricle. Measurements were performed in triplicates using the leading edge convention for myocardial borders.
The following parameters were measured: Left ventricular end-diastolic diameter (LVEDD) Left ventricular end-systolic diameter (LVESD); anterior wall thickness in diastole and systole (AWTd, AWTs); and Heart rate (HR).
Shortening fraction (SF) was calculated using the above variables.

ApoE−/− mice [2] = assay: LDL cholesterol levels in ApoE−/− mice (Friedewald formula); settings: high-fat diet, 20 IP injections of 5 mg/kg
Method: (§1) Twelve- to fourteen-week-old male and female ApoE ApoE^−/− mice on a C57B1/6 background were fed a high-fat diet (Takland adjusted calories, Western-type diet: 2.1% fat, 15% cholesterol, 19.5% casein) for 12 weeks.
Blood samples were collected in capillary tubes following twelve hours of fasting, and immediately centrifuged for plasma removal. Plasma samples were assayed for total cholesterol using conventional colorimetric assays.
(§2) Control mice were injected with Cremophor:ethanol:saline 1:1:18. Plasma triglyceride levels were assayed following twelve hours fasting using an enzymatic reagent (Sigma™).
LDLc=TC−triglycerides levels/5-HDLc
Statistical analysis was by ANOVA test (ANalysis Of VAriance between groups).

[3] = system: SD/Hsd male rats, surgically induced infarct; assay: Histopathology of infarcted hearts (hematoxylin and eosin, Masson trichrome); assay type: in vivo
[4] = system: SD/Hsd male rats, surgically induced infarct; assay: Infarct (scar) size after LAD ligation, Evans blue/TTC staining and planimetry; assay type: in vivo
ApoE−/− mice [5] = assay: Size of atherosclerotic plaques in the aorta of ApoE−/− mice
Method: ApoE knock-out (ApoE^−/−) mice are known to spontaneously develop atherosclerosis, which may be enhanced by a high-fat diet. Twelve- to fourteen-week-old male and female ApoE ApoE^−/− mice on a C57B1/6 background were fed a high-fat diet (Takland adjusted calories, Western-type diet: 2.1% fat, 15% cholesterol, 19.5% casein) for 12 weeks.
Blood samples were collected in capillary tubes following twelve hours of fasting, and immediately centrifuged for plasma removal. Plasma samples were assayed for total cholesterol using conventional colorimetric assays. Mice were then sacrificed, and their aorta were extracted and examined for the presence and size of atherosclerotic lesions (plaques).
as §2

ApoE−/− mice [6] = assay: Plasma triglyceride levels in ApoE−/− mice on high-fat diet; settings: 20 IP injections of 5 mg/kg, 12 h fasting
Method: as §1
Blood samples were collected in capillary tubes following twelve hours of fasting, and immediately centrifuged for plasma removal.
as §2

[7] = Day 7 after LAD ligation, 5 mg/kg IP daily

Cannabidiol [CBD]
LVEDD (left ventricular end-diastolic diameter) ([1]; Day 0 (baseline)): 0.70 ± 0.06 mm | LVESD (left ventricular end-systolic diameter) ([1]; Day 0 (baseline)): 0.36 ± 0.08 mm | SF (shortening fraction) ([1]; Day 0 (baseline)): 48.27±8.6% | LVEDD (left ventricular end-diastolic diameter) [1, 7]: 0.72 ± 0.05 mm | LVESD (left ventricular end-systolic diameter) [1, 7]: 0.43 ± 0.07 mm | SF (shortening fraction) ([1]; Day 7 after LAD ligation, 5 mg/kg IP daily, 5 mg/kg): 39.7±8.22% | LV function in M mode echocardiography ([1]; FIG. 4D, CBD-treated animal): preserved LV function | lowering of LDL levels vs control (ApoE−/− mice [2]): 17% | LDL cholesterol level (ApoE−/− mice [2]; calculated by Friedewald formula): 1300 mg/dL | inflammation in heart histology ([3]; FIG. 4B, animal treated with CBD): almost total lack of inflammation | granulation tissue formation with early collagen deposition vs control ([3]; Masson trichrome staining): similar; also recorded: did not affect | inflammatory infiltrate grade (leukocytes infiltrating the border of the infarcted zone) ([3]; graded by pathologist, control animals 2-3): 1+ or nullnil (0) | % infarct size ([4]; individual animals of CBD-treated group): 16.3% and 15.3% and 14.6% and 13.9% and 6.5% and 7.5% and 7.6% (2×) and 8.1% and 7.8% | mean infarct size as percent of area at risk ([4]; rats, 5 mg/kg IP 1 h before surgery and daily, 7 days, control 28.2±7.0%): 9.6±3.9% | atherosclerotic plaques, average % of the aorta area (ApoE−/− mice [5]; first experiment, 12 CBD-treated mice, control 5.5%): 3.18% | plaque area, % of the total aorta area (ApoE−/− mice [5]; second experiment, control 10.6%): 5.09% | lowering of plasma triglyceride levels compared with control-treated mice (ApoE−/− mice [6]): 59%
